Reference: patent US20170258711A1, “Fatty Acid Acylated D-Amino Acids for Oral Peptide Delivery” (Novo Nordisk A/S, priority 2012, published 2017)

Tested on: Caco-2 cells
Assay: Transepithelial electrical resistance (TEER) of Caco-2 cell monolayers
Format: cell-based
Design: unit not given here
Details: for TEER 24 h: 24 h after experiment
Method: Caco-2 cells were obtained from the American Type Culture Collection (Manassas, Va.). Cells were seeded in culturing flasks and passaged in Dulbecco's Modified Eagle′ medium supplemented with 10% fetal bovine serum, 1% penicillin/streptomycin (100 U/ml and 100 μg/ml, respectively), 1% L-glutamine and 1% nonessential amino acids. Caco-2 cells were seeded onto tissue culture treated polycarbonate filters in 12-well Transwell plates (1.13 cm2, 0.4 μm pore size) at a density of 10^5 cells/well. Monolayers were grown in an atmosphere of 5% CO2-95% O2 at 37° C. Growth media were replaced every other day. The experiment was performed on day 10-14 after seeding of Caco-2 cells.
Before and during the experiment the transepithelial electrical resistance (TEER) of the cell monolayers was monitored. In selected experiments, the transport buffer were changed to culturing medium after end of experiment and the TEER measured 24 h after experiment. The TEER was measured with EVOM™ Epithelial Voltohmmeter connected to Chopsticks.

[1] = Table 9, insulin analogue A14E, B25H, B29K(N(eps)Octadecanedioyl-gGlu-OEG-OEG), desB30 human insulin + 0.5 mM fatty acid acylated amino acid
[2] = Table 12, comparison D- with L-counterparts, footnote: insulin analogue A1(Nα,Nα-Dimethyl), A14E, B1(Nα,Nα-dimethyl), B25H, B29K(N(eps)Octadecanedioyl-gGlu-OEG-OEG), desB30 human insulin
[3] = Table 12, comparison D- with L-counterparts
[4] = Table 10, L-amino acid counterparts, insulin analogue A14E, B25H, B29K(N(eps)Octadecanedioyl-gGlu-OEG-OEG), desB30 human insulin
[5] = Table 10, L-amino acid counterparts
[6] = Table 11, insulin analogue A1(Nα,Nα-Dimethyl), A14E, B1(Nα,Nα-dimethyl), B25H, B29K(N(eps)Octadecanedioyl-gGlu-OEG-OEG), desB30 human insulin

SMILES | TEER 60 min [1] | TEER 24 h (Table 9, in culturing medium) | TEER 60 min [2] | TEER 24 h [3] | TEER 60 min [4] | TEER 24 h [5] | TEER 60 min [6] | TEER 24 h [6] | TEER 24 h (Table 9, in culturing medium, listed as N-dodecanoyl-D-Leucine) | TEER 24 h (Table 10, L-amino acid counterparts, listed as N-decanoyl-L-Leucine)
CCCCCCCCCCCCCCCC(=O)N[C@H](CCC(=O)O)C(=O)O [N-hexadecanoyl-D-glutamic acid] | 35.6 | 106.2 | 35.6 | 106.2 |  |  |  |  |  | 
CCCCCCCCCCCC(=O)N[C@H](C(=O)O)C(C)C [N-dodecanoyl-L-valine, reference compound] |  |  | 79.7 | 95.3 | 79.7 | 95.3 |  |  |  | 
CCCCCCCCCCCCCC(=O)N[C@H](Cc1ccc(O)cc1)C(=O)O [N-tetradecanoyl-D-tyrosine] | 44.4 | 125.3 | 44.4 | 125.3 |  |  |  |  |  | 
CCCCCCCCCCCC(=O)N[C@@H](CC(C)C)C(=O)O [N-dodecanoyl-L-leucine, reference compound] |  |  | 47.8 | 107.9 | 47.8 | 107.9 | 57.4 | 91.7 |  | 
CCCCCCCCCC(=O)N[C@H](C(=O)O)[C@@H](C)CC [N-decanoyl-L-isoleucine, reference compound] |  |  | 58.3 | 102.4 |  |  |  |  |  | 
CCCCCCCCCCCC(=O)N[C@@H](C(=O)O)[C@H](C)CC [N-dodecanoyl-D-isoleucine] |  |  | 48.3 | 101.4 |  |  |  |  |  | 
CCCCCCCCCCCC(=O)N[C@H](CC(C)C)C(=O)O [N-dodecanoyl-D-leucine] |  | 100.0 | 42.8 | 100 |  |  | 50.9 | 91.4 | 101.4 | 
CCCCCCCCCCCCCC(=O)N[C@@H](CC(=O)O)C(=O)O [N-tetradecanoyl-L-aspartic acid, reference compound] |  |  | 77.1 | 100.2 | 77.1 | 100.2 |  |  |  | 
CCCCCCCCCCCCCC(=O)N[C@H](CCC(=O)O)C(=O)O [N-tetradecanoyl-D-glutamic acid] | 79.9 ± 2.9^¤ | 102.2 ± 1.9^¤ | 79.9 ± 2.9^¤ | 102.2 ± 1.9^¤ |  |  |  |  |  | 
CCCCCCCCCC(=O)N[C@@H](CC(C)C)C(=O)O [N-decanoyl-L-leucine, reference compound] |  |  | 92.2 | 101.8 |  | 101.8 |  |  |  | 102.4
CCCCCCCCCCCCCC(=O)N[C@@H](Cc1c[nH]c2ccccc12)C(=O)O [N-tetradecanoyl-L-tryptophan, reference compound] |  |  | 27.8 | 107.9 | 27.8 | 107.9 |  |  |  | 
CCCCCCCCCCCC(=O)N[C@@H](Cc1ccccc1)C(=O)O [N-dodecanoyl-L-phenylalanine, reference compound] |  |  | 36.6 | 100.4 | 36.6 | 100.4 |  |  |  | 
CCCCCCCCCCCC(=O)N[C@@H](C(=O)O)C(C)C [N-dodecanoyl-D-valine] | 66.1 | 99.3 | 66.1 | 99.3 |  |  |  |  |  | 
CCCCCCCCCCCCCCCC(=O)N[C@H](CC(=O)O)C(=O)O [N-hexadecanoyl-D-aspartic acid] | 24.1 | 112.2 | 24.1 | 112.2 |  |  | 74.7 | 87.0 |  | 
CCCCCCCCCCCCCCCC(=O)N[C@@H](CCC(=O)O)C(=O)O [N-hexadecanoyl-L-glutamic acid, reference compound] |  |  | 72.3 | 109.5 | 72.3 | 109.5 |  |  |  | 
CCCCCCCCCCCC(=O)N[C@H](Cc1ccccc1)C(=O)O [N-dodecanoyl-D-phenylalanine] | 37.6 | 108.4 | 37.6 | 108.4 |  |  |  |  |  | 
CCCCCCCCCCCCCC(=O)N[C@@H](CCC(=O)O)C(=O)O [N-tetradecanoyl-L-glutamic acid, reference compound] |  |  | 82.0 ± 3.2^¤ | 103.1 ± 3.7^¤ | 82.0 ± 3.2^¤ | 103.1 ± 3.7^¤ |  |  |  | 
CCCCCCCCCCCC(=O)N1CCC[C@@H]1C(=O)O [N-dodecanoyl-D-proline] | 76.6 | 99.1 | 76.6 | 99.1 |  |  |  |  |  | 
CCCCCCCCCCCCCCCC(=O)N[C@@H](CC(=O)O)C(=O)O [N-hexadecanoyl-L-aspartic acid, reference compound] |  |  | 33.2 | 112.3 | 33.2 | 112.3 | 76.0 | 97.2 |  | 
CCCCCCCCCCCCCC(=O)N[C@H](CC(=O)O)C(=O)O [N-tetradecanoyl-D-aspartic acid] | 74.2 | 96.1 | 74.2 | 96.1 |  |  |  |  |  | 
CCCCCCCCCCCCCC(=O)N[C@H](Cc1c[nH]c2ccccc12)C(=O)O [N-tetradecanoyl-D-tryptophan] | 31.3 | 109.9 | 31.3 | 109.9 |  |  |  |  |  | 
CCCCCCCCCC(=O)N[C@H](CC(C)C)C(=O)O [N-decanoyl-D-leucine] | 93.8 | 100.3 | 93.8 | 100.3 |  |  |  |  |  | 
CCCCCCCCCCCCCC(=O)N[C@@H](Cc1ccc(O)cc1)C(=O)O [N-tetradecanoyl-L-tyrosine, reference compound] |  |  | 41.9 | 122.3 | 41.9 | 122.3 |  |  |  | 
